“Also recorded” adds a separate entry of the source.
System: Bacillus licheniformis

## Nc1n[nH]c(=O)[nH]1 [amine, 5-amino-1,2,4-triazole-3-one]
  stability of the amine formed in the incubation mixture: does not undergo any subsequent transformation; also recorded: stable

Source: patent publication US6582952B1 (priority 1997, dated 2003)
